Measurements from publication PMC10059083, “Design, Synthesis, and Biological Evaluation of Novel Hydroxamic Acid-Based Organoselenium Hybrids” (Pharmaceuticals, 2023).
≈ marks a conversion by molar mass, not a printed value. Where “and” joins values, the source holds several entries; their conditions need not be identical. Equal values may be shown once.

Key:
MCF-7 cells = test: MTT antiproliferative assay, MCF-7 cells; type: cell-based
From the text: (§1) Recently, OSe agents have attracted interest due to their potential chemoprotective and antitumor properties. […] Therefore, we estimated the OSe agents’ antiproliferative activities against different cancer cells, i.e., MCF-7 and HepG2 cells and healthy lung fibroblast WI-38 cells, using the MTT assay. The drug doxorubicin was employed as the standard. The corresponding therapeutic indices (TI) are described as the proportion of the WI38 cells IC50 to the IC50 of the cancer cell (e.g., MCF-7 and HepG2) (Table 1).
(§2) The products’ anticancer activity was examined using the MTT assay against breast (MCF-7) carcinoma cells, liver (HepG2), and normal WI-38 cells, following the previously reported method. Experimental details can be found in the Supplementary Materials.
(§3) 1.1. The biological assays
(§4) 1.1.1. The anticancer activity
(§5) The breast adenocarcinoma (MCF-7), Hepatocellular carcinoma (HEPG-2), and normal fibroblast (WI-38) cells were obtained from ATCC via Holding company for biological products and vaccines (VACSERA), Cairo, Egypt. The reagents […] medium, MTT, DMSO, and fetal bovine serum was obtained from Sigma Aldrich. Dulbecco’s modified Eagle’s medium was used as the culture medium for the cells, and the cytotoxicity was evaluated using the reported MTT assay. Doxorubicin was used as the positive reference, and the IC50 values were obtained from the corresponding dose-response curve.
(§6) This colorimetric assay is based on converting the yellow tetrazolium bromide (MTT) to a purple formazan derivative by mitochondrial succinate dehydrogenase in viable cells. Cell lines were cultured in […] medium with 10% fetal bovine serum. Antibiotics added were 100 units/ml penicillin and 100µg/ml streptomycin at 37 C in a 5% Co2 incubator. The cell lines were seeded in a 96-well plate at a density of 1.0x10^4 cells/well. at 37 C for 48 h under 5% Co2. After incubation, the cells were treated with different concentrations of compounds and incubated for 13 […]
(§7) Finally, dimethyl sulfoxide (DMSO) in the volume of 100 µl is added to each well to dissolve the purple formazan formed. The colorimetric assay is measured and recorded at an absorbance of 570 […]
(§8) The percentage of the relative cell viability was calculated as (A570 of treated samples/A570 of the untreated sample) X 100. […]

[1] = DPPH radical scavenging assay
Protocol: The antioxidant activities of the OSe compounds were intensively investigated because these are usually the cause of their chemopreventive potency. Their redox activities were evaluated via DPPH and ABTS assays, using ascorbic acid as the standard. We spectrophotometrically measured the antioxidant efficiency of the OSe compounds by their ability to decolorise the DPPH^. and ABTS^. radicals at […] (Figure 2).
The compounds’ antioxidant properties were assessed by in vitro bioassays using DPPH and ABTS, following the reported method. Details are in the Supplementary Materials.
Figure 4 Estimation of the OSe compounds’ redox activities via DPPH and ABTS experiments. All tests are mean ± S.D. ABTS experiment: absorbance was followed at 734 nm for OSe compounds (50 µL, 1 mM in MeOH) and ABTS solution (60 µL). DPPH Absorbance was monitored at 517 nm for OSe compounds (200 µL, 1 mM in MeOH) and DPPH (400 µL) after 30 min. […]
1.1.3. The antioxidant activity
1.1.3.1. The DPPH bioassay
The hydrogen atom or electron donation ability of the corresponding compounds was measured by estimating the bleaching of the purple color of a methanolic solution of DPPH [5]. This spectrophotometric assay uses stable DPPH. reagent. The sample was prepared by adding […] of the OSe compounds (1 mM in methanol) to […] DPPH in methanol. After 30 min of incubation in the dark, the absorbance was read against a blank at […]. Ascorbic acid (vitamin C) and ebselen were used as standard antioxidants (positive control). A blank sample was run without DPPH. A negative control sample was run using methanol instead of the sample. The radical scavenging activity was calculated using the following equation:
Inhibition%= (Ablank-Asample)/(Ablank)*100. […]

S. aureus = test: Agar diffusion assay, S. aureus; type: cell-based; settings: Staphylococcus aureus; 6-mm disks soaked with 20 μM of the OSe agents; read-out: S. aureus ZID (inhibition zone diameter)
HepG2 cells = test: MTT antiproliferative assay, HepG2 cells; type: cell-based
From the text: Recently, OSe agents have attracted interest due to their potential chemoprotective and antitumor properties. We have developed several OSe compounds with promising antioxidant, antimicrobial, and antitumor properties. Therefore, we estimated the OSe agents’ antiproliferative activities against different cancer cells, i.e., MCF-7 and HepG2 cells and healthy lung fibroblast WI-38 cells, using the MTT assay. The drug doxorubicin was employed as the standard. The corresponding therapeutic indices (TI) are described as the proportion of the WI38 cells IC50 to the IC50 of the cancer cell (e.g., MCF-7 and HepG2) (Table 1).
as §2, §3, §4, §5, §6
Finally, dimethyl sulfoxide (DMSO) in the volume of 100 µl is added to each well to dissolve the purple formazan formed. The colorimetric assay is measured and recorded at an absorbance of 570 nm using a plate reader (EXL 800, USA). The percentage of the relative cell viability was calculated as (A570 of treated samples/A570 of the untreated sample) X 100. […]

WI-38 cells = test: MTT cytotoxicity assay, normal lung fibroblast WI-38 cells; type: cell-based; settings: Homo sapiens, WI-38, 24 h, read-out: WI38 IC50
From the text: as §1, §2, §3, §4, §5, §6, §7, §8

C. albicans = test: MIC by microdilution, C. albicans; type: cell-based; settings: Candida albicans, read-out: MIC C. albicans
From the text: The encouraging antitumor properties of the OSe compounds motivated us to evaluate their corresponding antimicrobial activities against the C. albicans fungal strain, S. aureus Gram-positive bacteria, and E. coli Gram-negative bacteria. Therefore, we applied the agar diffusion and minimum inhibitory concentration (MIC) methods using clotrimazole antifungal and ampicillin antibacterial drugs as standards.
The products’ antimicrobial properties were examined according to the previously reported method, via agar well diffusion assay against E. coli, S. aureus, and C. albicans. A microdilution method was also used to record MICs (M), following the previously reported procedure. Experimental details can be found in the Supplementary Materials.
Briefly, a concentration of 1 mM was prepared for each compound by dissolving in DMSO. Paper discs of standard size […] were sterilized in an autoclave and soaked in 9 µL of the test compounds, and placed in the Petri dishes, which in turn contain a nutrient media (agar 9 g, peptone 5 g, and beef extract 3 g) seeded with the dedicated strain. Incubation lasted for 13 h at 36 0C. […]

**Q.** For `Nc1ccc([Se]CC(=O)NOCc2ccccc2)cc1` [Compound 8, 2-((4-Aminophenyl)selanyl)-N-(benzyloxy)acetamide], which IC50 (MCF-7 cells; Homo sapiens, MCF7, 24 h, read-out: MCF7 IC50) is on record?
**A.** 9.86 ± 0.7 µM

**Q.** What about the “MCF7 TI (therapeutic index)” value (MCF-7 cells; ratio of IC50 against WI38 cells to IC50 against MCF-7 cells) of the same compound?
**A.** 2.8

**Q.** What about the “antioxidant (scavenging) activity in the DPPH assay” value ([1]; compounds 200 µL, 1 mM in MeOH, DPPH 400 µL, 30 min, absorbance at 517 nm) of the same compound?
**A.** 85.1% and 92.3%

**Q.** What about the IC50 ([1]; concentration causing 50% decrease in absorbance, DPPH assay) of the same compound?
**A.** 23.67 ± 0.21 µM

**Q.** What about the zone of inhibition at 20 µM (S. aureus) of the same compound?
**A.** 19 mm

**Q.** And the IC50 (HepG2 cells; Homo sapiens, HepG2, 24 h, read-out: HepG2 IC50)?
**A.** 7.57 ± 0.5 µM

**Q.** And the “HepG2 TI (therapeutic index)” value (HepG2 cells; ratio of IC50 against WI38 cells to IC50 against HepG2 cells)?
**A.** 3.6

**Q.** And the IC50 (WI-38 cells)?
**A.** 27.4 ± 2.1 µM

**Q.** And the MIC (C. albicans)?
**A.** 4 µM (≈ 1.34 µg/mL)
